Assay results: patent US20070049593A1 (priority 2004, published 2007)
Counter-ions that a name gives are not always drawn.

biological target: T1, HCV polymerase (Hepatitis C virus genotype 1b, UniProt P26663); assay: biochemical; parameters: species or system HCV BK strain
T1 construct: a region encoding NS5B (J Virol 1991 March, 65(3), 1105-13, 544 amino acids after deletion of 47 amino acids on the C-terminal); 6xHis (C); made in house; host or cells: Escherichia coli
In short: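 Recombinant HCV BK-strain NS5B (C-terminal 47 aa deleted, His6-tagged, E. coli), 0.5 μg/ml, run with 5 μg/ml in vitro-transcribed RNA template (polyU/3′X), ATP/GTP/CTP 50 μM, UTP 2 μM plus [3H]UTP, pH 7.5, 25° C, 90 min. TCA-precipitated RNA counted by scintillation; IC50 from activity with vs without compound.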

T1 sequence (P26663 2420-2963): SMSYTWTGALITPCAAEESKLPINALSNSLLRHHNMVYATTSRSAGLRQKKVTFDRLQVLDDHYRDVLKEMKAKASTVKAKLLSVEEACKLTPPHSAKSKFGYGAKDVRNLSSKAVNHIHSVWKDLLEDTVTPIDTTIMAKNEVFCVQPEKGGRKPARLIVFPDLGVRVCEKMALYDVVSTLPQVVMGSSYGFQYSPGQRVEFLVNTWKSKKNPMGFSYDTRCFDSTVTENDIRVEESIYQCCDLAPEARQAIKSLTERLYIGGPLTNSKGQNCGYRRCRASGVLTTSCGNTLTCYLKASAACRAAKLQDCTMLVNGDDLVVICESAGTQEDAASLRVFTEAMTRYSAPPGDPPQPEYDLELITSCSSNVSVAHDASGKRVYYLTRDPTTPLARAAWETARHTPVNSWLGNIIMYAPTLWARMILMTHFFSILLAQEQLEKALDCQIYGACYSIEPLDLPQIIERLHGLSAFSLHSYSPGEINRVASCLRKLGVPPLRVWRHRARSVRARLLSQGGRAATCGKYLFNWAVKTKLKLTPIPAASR

| SMILES | IC50 |
| --- | --- |
| CN1CCCCC1CCN1CCn2c(c(C3CCCCC3)c3ccc(C(=O)O)cc32)-c2ccc(Cl)cc21 (stereo not drawn) [Example 1-312, 3-chloro-13-cyclohexyl-5-[2-(1-methylpiperidin-2-yl)ethyl]-6,7-dihydro-5H-benzo[5,6][1,4]diazepino[7,1-a]indole-10-carboxylic acid dihydrochloride] | < 100 nM |
| COCC1CCN(CCN2CCn3c(c(C4CCCCC4)c4ccc(C(=O)O)cc43)-c3ccc(Cl)cc32)CC1 [Example 1-314, 3-chloro-13-cyclohexyl-5-[2-(4-methoxymethylpiperidin-1-yl)ethyl]-6,7-dihydro-5H-benzo[5,6][1,4]diazepino[7,1-a]indole-10-carboxylic acid dihydrochloride] | < 100 nM |
| COCC1CCN(CCN2CCn3c(c(C4CCCCC4)c4ccc(C(=O)O)cc43)-c3ccc(C)cc32)CC1 [Example 1-315, 13-cyclohexyl-5-[2-(4-methoxymethylpiperidin-1-yl)ethyl]-3-methyl-6,7-dihydro-5H-benzo[5,6][1,4]diazepino[7,1-a]indole-10-carboxylic acid dihydrochloride] | < 100 nM |
| COC[C@H]1CCCN1CCN1CCn2c(c(C3CCCCC3)c3ccc(C(=O)O)cc32)-c2ccccc21 [Example 1-316, 13-cyclohexyl-5-[2-((R)-2-methoxymethylpyrrolidin-1-yl)ethyl]-6,7-dihydro-5H-benzo[5,6][1,4]diazepino[7,1-a]indole-10-carboxylic acid dihydrochloride] | < 100 nM |
| CCN1CCC(OCCN2CCn3c(c(C4CCCCC4)c4ccc(C(=O)O)cc43)-c3ccc(Cl)cc32)CC1 [Example 1-317, 3-chloro-13-cyclohexyl-5-[2-(1-ethylpiperidin-4-yloxy)ethyl]-6,7-dihydro-5H-benzo[5,6][1,4]diazepino[7,1-a]indole-10-carboxylic acid dihydrochloride] | < 100 nM |
| CC(C)N1CCC(OCCN2CCn3c(c(C4CCCCC4)c4ccc(C(=O)O)cc43)-c3ccc(Cl)cc32)CC1 [Example 1-318, 3-chloro-13-cyclohexyl-5-[2-(1-isopropylpiperidin-4-yloxy)ethyl]-6,7-dihydro-5H-benzo[5,6][1,4]diazepino[7,1-a]indole-10-carboxylic acid dihydrochloride] | < 100 nM |
| CN(CCN1CCn2c(c(C3CCCCC3)c3ccc(C(=O)O)cc32)-c2ccccc21)C1CCCC1 [Example 1-319, 13-cyclohexyl-5-[2-(N-cyclopentyl-N-methylamino)ethyl]-6,7-dihydro-5H-benzo[5,6][1,4]diazepino[7,1-a]indole-10-carboxylic acid] | < 100 nM |
| CC1CCCN(CCCN2CCn3c(c(C4CCCCC4)c4ccc(C(=O)O)cc43)-c3ccc(Cl)cc32)C1 (stereo not drawn) [Example 1-320, 3-chloro-13-cyclohexyl-5-[3-(3-methylpiperidin-1-yl)propyl]-6,7-dihydro-5H-benzo[5,6][1,4]diazepino[7,1-a]indole-10-carboxylic acid] | < 100 nM |
| CN(CCN1CCn2c(c(C3CCCCC3)c3ccc(C(=O)O)cc32)-c2ccccc21)C1CCOC1 (stereo not drawn) [Example 1-321, 13-cyclohexyl-5-{2-[N-methyl-N-(tetrahydrofuran-3-yl)amino]ethyl}-6,7-dihydro-5H-benzo[5,6][1,4]diazepino[7,1-a]indole-10-carboxylic acid] | < 100 nM |
| CC1CCCCN1CCCN1CCn2c(c(C3CCCCC3)c3ccc(C(=O)O)cc32)-c2ccc(Cl)cc21 (stereo not drawn) [Example 1-322, 3-chloro-13-cyclohexyl-5-[3-(2-methylpiperidin-1-yl)propyl]-6,7-dihydro-5H-benzo[5,6][1,4]diazepino[7,1-a]indole-10-carboxylic acid] | < 100 nM |
| CCN1CCCCC1CCN1CCn2c(c(C3CCCCC3)c3ccc(C(=O)O)cc32)-c2ccc(Cl)cc21 (stereo not drawn) [Example 1-323, 3-chloro-13-cyclohexyl-5-[2-(1-ethylpiperidin-2-yl)ethyl]-6,7-dihydro-5H-benzo[5,6][1,4]diazepino[7,1-a]indole-10-carboxylic acid dihydrochloride] | < 100 nM |
| CCOC1CCCN(CCN2CCn3c(c(C4CCCCC4)c4ccc(C(=O)O)cc43)-c3ccccc32)C1 (stereo not drawn) [Example 1-324, 13-cyclohexyl-5-[2-(3-ethoxypiperidin-1-yl)ethyl]-6,7-dihydro-5H-benzo[5,6][1,4]diazepino[7,1-a]indole-10-carboxylic acid monohydrochloride] | < 100 nM |
| CCOC1CCCN(CCN2CCn3c(c(C4CCCCC4)c4ccc(C(=O)O)cc43)-c3ccc(C)cc32)C1 (stereo not drawn) [Example 1-325, 13-cyclohexyl-5-[2-(3-ethoxypiperidin-1-yl)ethyl]-3-methyl-6,7-dihydro-5H-benzo[5,6][1,4]diazepino[7,1-a]indole-10-carboxylic acid monohydrochloride] | < 100 nM |
| CCOC1CCCN(CCN2CCn3c(c(C4CCCCC4)c4ccc(C(=O)O)cc43)-c3ccc(Cl)cc32)C1 (stereo not drawn) [Example 1-326, 3-chloro-13-cyclohexyl-5-[2-(3-ethoxypiperidin-1-yl)ethyl]-6,7-dihydro-5H-benzo[5,6][1,4]diazepino[7,1-a]indole-10-carboxylic acid monohydrochloride] | < 100 nM |
| CCC1COCCN1CCN1CCn2c(c(C3CCCCC3)c3ccc(C(=O)O)cc32)-c2ccc(Cl)cc21 (stereo not drawn) [Example 1-327, 3-chloro-13-cyclohexyl-5-[2-(3-ethylmorpholin-4-yl)ethyl]-6,7-dihydro-5H-benzo[5,6][1,4]diazepino[7,1-a]indole-10-carboxylic acid dihydrochloride] | < 100 nM |
| CC1CN(CCN2CCn3c(c(C4CCCCC4)c4ccc(C(=O)O)cc43)-c3ccc(Cl)cc32)CCO1 (stereo not drawn) [Example 1-328, 3-chloro-13-cyclohexyl-5-[2-(2-methylmorpholin-4-yl)ethyl]-6,7-dihydro-5H-benzo[5,6][1,4]diazepino[7,1-a]indole-10-carboxylic acid dihydrochloride] | < 100 nM |
| Cc1ccc2c(c1)N(CCN1CCOC(C)C1)CCn1c-2c(C2CCCCC2)c2ccc(C(=O)O)cc21 (stereo not drawn) [Example 1-329, 13-cyclohexyl-3-methyl-5-[2-(2-methylmorpholin-4-yl)ethyl]-6,7-dihydro-5H-benzo[5,6][1,4]diazepino[7,1-a]indole-10-carboxylic acid dihydrochloride] | < 100 nM |
| CNC(=O)N1CCN(CCN2CCn3c(c(C4CCCCC4)c4ccc(C(=O)O)cc43)-c3ccccc32)CC1 [Example 1-330, 13-cyclohexyl-5-[2-(4-methylcarbamoylpiperazin-1-yl)ethyl]-6,7-dihydro-5H-benzo[5,6][1,4]diazepino[7,1-a]indole-10-carboxylic acid dihydrochloride] | < 100 nM |
| CCCC1CCCN(CCN2CCn3c(c(C4CCCCC4)c4ccc(C(=O)O)cc43)-c3ccccc32)C1 (stereo not drawn) [Example 1-331, 13-cyclohexyl-5-[2-(3-propylpiperidin-1-yl)ethyl]-6,7-dihydro-5H-benzo[5,6][1,4]diazepino[7,1-a]indole-10-carboxylic acid dihydrochloride] | < 100 nM |
| CCC1CCCCN1CCN1CCn2c(c(C3CCCCC3)c3ccc(C(=O)O)cc32)-c2ccccc21 (stereo not drawn) [Example 1-332, 13-cyclohexyl-5-[2-(2-ethylpiperidin-1-yl)ethyl]-6,7-dihydro-5H-benzo[5,6][1,4]diazepino[7,1-a]indole-10-carboxylic acid dihydrochloride] | < 100 nM |
| CCC1CCCCN1CCN1CCn2c(c(C3CCCCC3)c3ccc(C(=O)O)cc32)-c2ccc(C)cc21 (stereo not drawn) [Example 1-333, 13-cyclohexyl-5-[2-(2-ethylpiperidin-1-yl)ethyl]-3-methyl-6,7-dihydro-5H-benzo[5,6][1,4]diazepino[7,1-a]indole-10-carboxylic acid dihydrochloride] | < 100 nM |
| CCC1CCCCN1CCN1CCn2c(c(C3CCCCC3)c3ccc(C(=O)O)cc32)-c2ccc(Cl)cc21 (stereo not drawn) [Example 1-334, 3-chloro-13-cyclohexyl-5-[2-(2-ethylpiperidin-1-yl)ethyl]-6,7-dihydro-5H-benzo[5,6][1,4]diazepino[7,1-a]indole-10-carboxylic acid dihydrochloride] | < 100 nM |
| CC[C@H]1CCCN(CCN2CCn3c(c(C4CCCCC4)c4ccc(C(=O)O)cc43)-c3ccc(Cl)cc32)C1 [Example 1-335, 3-chloro-13-cyclohexyl-5-[2-((S)-3-ethylpiperidin-1-yl)ethyl]-6,7-dihydro-5H-benzo[5,6][1,4]diazepino[7,1-a]indole-10-carboxylic acid dihydrochloride] | < 100 nM |
| CC[C@@H]1CCCN(CCN2CCn3c(c(C4CCCCC4)c4ccc(C(=O)O)cc43)-c3ccc(Cl)cc32)C1 [Example 1-336, 3-chloro-13-cyclohexyl-5-[2-((R)-3-ethylpiperidin-1-yl)ethyl]-6,7-dihydro-5H-benzo[5,6][1,4]diazepino[7,1-a]indole-10-carboxylic acid dihydrochloride] | < 100 nM |
| CC(C)c1ccc2c(c1)N(CCN1CCCCCC1)CCn1c-2c(C2CCCCC2)c2ccc(C(=O)O)cc21 [Example 1-337, 5-[2-(azepan-1-yl)ethyl]-13-cyclohexyl-3-isopropyl-6,7-dihydro-5H-benzo[5,6][1,4]diazepino[7,1-a]indole-10-carboxylic acid dihydrochloride] | < 100 nM |
| CCc1ccc2c(c1)N(CCN1CCCCCC1)CCn1c-2c(C2CCCCC2)c2ccc(C(=O)O)cc21 [Example 1-338, 5-[2-(azepan-1-yl)ethyl]-13-cyclohexyl-3-ethyl-6,7-dihydro-5H-benzo[5,6][1,4]diazepino[7,1-a]indole-10-carboxylic acid dihydrochloride] | < 100 nM |
| CCc1ccc2c(c1)N(CCN1CCCC(C)C1)CCn1c-2c(C2CCCCC2)c2ccc(C(=O)O)cc21 (stereo not drawn) [Example 1-339, 13-cyclohexyl-3-ethyl-5-[2-(3-methylpiperidin-1-yl)ethyl]-6,7-dihydro-5H-benzo[5,6][1,4]diazepino[7,1-a]indole-10-carboxylic acid dihydrochloride] | < 100 nM |
